Test results as given in ChEMBL document CHEMBL1201862, “PubChem BioAssay data set” (2004).
Structures can show the parent of a compound that is named as a salt.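 Five concentrations, 48 hours, 96-well plates. GI50 = concentration required for 50% inhibition of growth.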 The source made the active and inactive calls. Cut-off read from the data, not from the text of the source: active = GI50 up to about 1.1 µM and inactive = higher.

How the values were obtained:
Assay in all cases: NCI tumour cell line growth inhibition, 48 h
IGROV-1 = system: IGROV-1
SNB-19 = system: SNB-19
NCI-H226 = system: NCI-H226
LOX IMVI = system: LOX IMVI
K562 = system: K562
SF-539 = system: SF-539
COLO 205 = system: COLO 205
U-251 = system: U-251
CCRF-CEM = system: CCRF-CEM
ACHN = system: ACHN
OVCAR-3 = system: OVCAR-3
DU-145 = system: DU-145
SF-295 = system: SF-295
OVCAR-8 = system: OVCAR-8
SNB-75 = system: SNB-75
KM12 = system: KM12
EKVX = system: EKVX
HOP-18 = system: HOP-18
SN12C = system: SN12C
HL-60 = system: HL-60
A498 = system: A498
HOP-92 = system: HOP-92
RXF 631 = system: RXF 631
M14 = system: M14
LXFL 529 = system: LXFL 529
Malme-3M = system: Malme-3M
SR = system: SR
NCI-H460 = system: NCI-H460
KM-20L2 = system: KM-20L2
SF-268 = system: SF-268
HCT-116 = system: HCT-116
UACC-257 = system: UACC-257
SW-620 = system: SW-620
HCC 2998 = system: HCC 2998
SK-MEL-28 = system: SK-MEL-28
OVCAR-4 = system: OVCAR-4
RPMI-8226 = system: RPMI-8226
NCI-H23 = system: NCI-H23
HT-29 = system: HT-29
XF498 = system: XF498
SK-MEL-2 = system: SK-MEL-2
OVCAR-5 = system: OVCAR-5
NCI-H522 = system: NCI-H522
UACC-62 = system: UACC-62
UO-31 = system: UO-31
786-0 = system: 786-0
DLD-1 = system: DLD-1
TK-10 = system: TK-10
SK-MEL-5 = system: SK-MEL-5
CAKI-1 = system: CAKI-1
SK-OV-3 = system: SK-OV-3
MOLT-4 = system: MOLT-4
A549 = system: A549
HCT-15 = system: HCT-15
RXF 393 = system: RXF 393
HOP-62 = system: HOP-62
DMS-114 = system: DMS-114
M19-MEL = system: M19-MEL
DMS-273 = system: DMS-273
SNB-78 = system: SNB-78

Measured: GI50

Cc1ccc(S(=O)(=O)N/N=C/c2oc(-c3cccc([N+](=O)[O-])c3)c(-c3cccc([N+](=O)[O-])c3)c2[N+](=O)[O-])cc1
62.2 µM: HCT-15
inactive: IGROV-1 29.9 µM | SNB-19 67.1 µM | NCI-H226 > 100 µM | LOX IMVI 16.7 µM | K562 24.9 µM | SF-539 > 100 µM | COLO 205 > 100 µM | U-251 66.5 µM | CCRF-CEM 19.5 µM | ACHN 45.8 µM | OVCAR-3 > 100 µM | DU-145 > 100 µM | SF-295 49.8 µM | OVCAR-8 70.6 µM | SNB-75 92.5 µM | KM12 36 µM | EKVX > 100 µM | HOP-18 > 100 µM | SN12C 61.4 µM | HL-60 25.4 µM | A498 > 100 µM | HOP-92 31.9 µM | RXF 631 62.1 µM | M14 51.2 µM | LXFL 529 36.7 µM | Malme-3M > 100 µM | SR 17.6 µM | NCI-H460 > 100 µM | KM-20L2 > 100 µM | SF-268 21.2 µM | HCT-116 32.4 µM | UACC-257 64.7 µM | SW-620 37.8 µM | HCC 2998 > 100 µM | SK-MEL-28 51.6 µM | OVCAR-4 > 100 µM | RPMI-8226 24 µM | NCI-H23 42.4 µM | HT-29 > 100 µM | XF498 > 100 µM | SK-MEL-2 28.3 µM | OVCAR-5 > 100 µM | NCI-H522 15.1 µM | UACC-62 17.8 µM | UO-31 16.3 µM | 786-0 60.7 µM | DLD-1 32.2 µM | TK-10 > 100 µM | SK-MEL-5 73.1 µM | CAKI-1 > 100 µM | SK-OV-3 23.4 µM | MOLT-4 25.8 µM | A549 > 100 µM | RXF 393 27 µM

COc1ccc(C(O)/C(=N\NC(N)=S)c2nc3ccc([N+](=O)[O-])cc3nc2O)cc1OC (centres undefined)
inactive: IGROV-1 > 100 µM | NCI-H226 > 100 µM | LOX IMVI > 100 µM | K562 > 100 µM | COLO 205 > 100 µM | U-251 > 100 µM | CCRF-CEM > 100 µM | ACHN > 100 µM | HOP-62 > 100 µM | SF-295 > 100 µM | OVCAR-8 > 100 µM | SNB-75 > 100 µM | KM12 > 100 µM | EKVX > 100 µM | HOP-18 44.2 µM | DMS-114 53.1 µM | HL-60 > 100 µM | A498 > 100 µM | HOP-92 > 100 µM | RXF 631 > 100 µM | M14 > 100 µM | LXFL 529 > 100 µM | Malme-3M > 100 µM | NCI-H460 > 100 µM | KM-20L2 > 100 µM | SF-268 > 100 µM | M19-MEL > 100 µM | UACC-257 64.3 µM | SW-620 > 100 µM | HCC 2998 > 100 µM | SK-MEL-28 > 100 µM | OVCAR-4 > 100 µM | RPMI-8226 > 100 µM | NCI-H23 > 100 µM | HT-29 > 100 µM | XF498 > 100 µM | SK-MEL-2 > 100 µM | OVCAR-5 > 100 µM | NCI-H522 32.4 µM | UACC-62 > 100 µM | UO-31 > 100 µM | 786-0 > 100 µM | DLD-1 > 100 µM | TK-10 > 100 µM | DMS-273 > 100 µM | SK-OV-3 > 100 µM | MOLT-4 78.3 µM | A549 > 100 µM | RXF 393 > 100 µM

CC1=NCCc2c1[nH]c1cc(O)ccc21 [HARMALOL HYDROCHLORIDE]
inactive: IGROV-1 > 100 µM | SNB-19 > 100 µM | NCI-H226 > 100 µM | LOX IMVI > 100 µM | K562 > 100 µM | SF-539 > 100 µM | COLO 205 > 100 µM | CCRF-CEM > 100 µM | ACHN > 100 µM | OVCAR-3 > 100 µM | HOP-62 > 100 µM | SF-295 > 100 µM | OVCAR-8 > 100 µM | SNB-75 > 100 µM | KM12 > 100 µM | EKVX > 100 µM | HOP-18 > 100 µM | DMS-114 > 100 µM | SN12C > 100 µM | HL-60 > 100 µM | A498 > 100 µM | HOP-92 > 100 µM | RXF 631 > 100 µM | M14 > 100 µM | LXFL 529 > 100 µM | Malme-3M > 100 µM | SNB-78 > 100 µM | NCI-H460 > 100 µM | KM-20L2 > 100 µM | SF-268 > 100 µM | HCT-116 > 100 µM | M19-MEL > 100 µM | UACC-257 > 100 µM | SW-620 > 100 µM | HCC 2998 > 100 µM | SK-MEL-28 > 100 µM | OVCAR-4 > 100 µM | RPMI-8226 > 100 µM | NCI-H23 > 100 µM | HT-29 > 100 µM | XF498 > 100 µM | SK-MEL-2 > 100 µM | OVCAR-5 > 100 µM | UACC-62 > 100 µM | UO-31 > 100 µM | 786-0 > 100 µM | DLD-1 > 100 µM | TK-10 > 100 µM | SK-MEL-5 > 100 µM | CAKI-1 > 100 µM | SK-OV-3 > 100 µM | MOLT-4 > 100 µM | A549 > 100 µM | RXF 393 > 100 µM
> 100 µM: HCT-15
